Results from PubChem BioAssay (NCI).
Where “and” joins values, the source holds several entries; their conditions need not be identical. Equal values may be shown once.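 Interpolation was linear, between the two tested concentrations surrounding the appropriate level; five concentrations were tested over 48 hours in 96-well plates. The concentration for 50% growth inhibition is given as GI50. TGI marks complete inhibition of growth.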

Assays:
Assay in all cases: inhibition of tumour cell growth, NCI panel, 48 h
HOP-92 NSCLC = system: HOP-92 NSCLC
IGROV1 ovarian = system: IGROV1 ovarian
SK-MEL-28 melanoma = system: SK-MEL-28 melanoma
SK-MEL-5 melanoma = system: SK-MEL-5 melanoma
CAKI-1 renal = system: CAKI-1 renal
HCT-15 colon = system: HCT-15 colon
HT29 colon = system: HT29 colon
OVCAR-8 ovarian = system: OVCAR-8 ovarian
SNB-75 CNS = system: SNB-75 CNS
OVCAR-4 ovarian = system: OVCAR-4 ovarian

| SMILES | GI50 (HOP-92 NSCLC) | TGI (HOP-92 NSCLC) | GI50 (IGROV1 ovarian) | TGI (IGROV1 ovarian) | GI50 (SK-MEL-28 melanoma) | TGI (SK-MEL-28 melanoma) | GI50 (SK-MEL-5 melanoma) | TGI (SK-MEL-5 melanoma) | GI50 (CAKI-1 renal) | TGI (CAKI-1 renal) | GI50 (HCT-15 colon) | TGI (HCT-15 colon) | GI50 (HT29 colon) | TGI (HT29 colon) | GI50 (OVCAR-8 ovarian) | TGI (OVCAR-8 ovarian) | GI50 (SNB-75 CNS) | TGI (SNB-75 CNS) | GI50 (OVCAR-4 ovarian) [µM] | TGI (OVCAR-4 ovarian) |
| --- | --- | --- | --- | --- | --- | --- | --- | --- | --- | --- | --- | --- | --- | --- | --- | --- | --- | --- | --- | --- |
| N#CC(C#N)N=Nc1ccc(Br)cc1 | 0.249 µM | 1.84 µM | 3.68 µM | > 73.6 µM | 3.41 µM | 26.5 µM | 5.13 µM | 34.1 µM | 2.05 µM | 12.1 µM | 3.22 µM | 15.9 µM | 3.39 µM | > 38.5 µM | 3.67 µM | 33.4 µM | 13.7 µM | > 100 µM | 2 | 37.9 µM |
| O=S(=O)(N/N=C/c1cccc(Cl)c1Cl)c1ccccc1 |  | 82.5 µM |  | > 100 µM |  | > 100 µM |  | > 100 µM |  | > 100 µM |  | > 100 µM |  | > 100 µM |  | > 100 µM |  | > 100 µM |  | > 100 µM |
| Nc1ncnc2c1c(-c1cccc(OCc3ccccc3)c1)cn2C1CC(CN2CCC2)C1 (stereo unspecified) | 0.0457 µM and 0.266 µM | 0.837 µM and 3.82 µM | 3.32 µM and 4.84 µM | 12.2 µM and > 10 µM | 1.33 µM and 1.63 µM | 2.78 µM and 3.52 µM | 1.31 µM and 1.42 µM | 2.67 µM and 2.8 µM | 2.56 µM and 2.44 µM | 11.4 µM and > 10 µM | 1.93 µM and 2.39 µM | 12.6 µM and > 10 µM | 0.0575 µM and 0.173 µM | 1.84 µM and 2.05 µM | 5.92 µM and 8.46 µM | 20 µM and > 10 µM | 1.7 µM and 2.29 µM | 4.86 µM and 8.46 µM | 3.49 | 15.3 µM and > 10 µM |
| CC1=C(C(=O)NCc2ccccc2)C(c2ccc([N+](=O)[O-])cc2)C(C(=O)NCc2ccccc2)=C(C)N1 |  | 73.6 µM |  | > 100 µM |  | > 100 µM |  | > 100 µM |  | > 100 µM |  | > 100 µM |  | 33.9 µM |  | > 100 µM |  | > 100 µM |  | 47.9 µM |
| COc1cc2c(cc1OC)C(OC)N(C)c1c-2ccc2cc3c(cc12)OCO3 (stereo unspecified) |  | 5.76 µM |  | 3.02 µM |  | 33.5 µM |  | 6.76 µM |  | 33 µM |  | > 75 µM |  | 7.07 µM |  | 21.6 µM |  | 5.53 µM |  | 26 µM |
| O=[N+]([O-])/C=C/c1cc2ccccc2[nH]1 |  | 43.5 µM |  | 26.3 µM |  | 44 µM |  | 28.2 µM |  | 33.7 µM |  | 53.6 µM |  | 35.5 µM |  | 48.8 µM |  | 28.6 µM |  | 27.4 µM |
| COc1ccc(C(=O)C(c2ccc(OC)cc2)C2OC(=O)C(Cl)=C2Cl)cc1 (stereo unspecified) |  | > 100 µM |  | > 100 µM |  | > 100 µM |  | > 100 µM |  | > 100 µM |  | > 100 µM |  | > 100 µM |  | > 100 µM |  |  |  | > 100 µM |
| CC(C)C1CC2C(=O)N(c3ccccc3)C(=O)C2c2[nH]c3ccccc3c21 (stereo unspecified) |  |  |  | > 100 µM |  | > 100 µM |  | > 100 µM |  | > 100 µM |  | > 100 µM |  | > 100 µM |  | 40.1 µM |  | 23.5 µM |  | 5.63 µM |
| O=C1c2ccccc2NC1(c1ccccc1)c1c(-c2ccccc2)[nH]c2ccccc12 (stereo unspecified) |  | > 100 µM |  | > 100 µM |  | > 100 µM |  |  |  | > 100 µM |  | > 100 µM |  | > 100 µM |  | > 100 µM |  | > 100 µM |  | > 100 µM |
| CC(=O)O[C@@H]1[C@@H](O)C2=C3[C@]4(C)[C@@H]1C(C)(C)C(=O)C[C@@H]4[C@]3(O)[C@H](OC(C)=O)[C@@]1(C[C@@H]1C)C2=O |  | 36.6 µM |  | 30.9 µM |  | 37.1 µM |  | 48.8 µM |  | 33.2 µM |  | 31.5 µM |  |  |  | 34.2 µM |  | 75.4 µM |  | 43.9 µM |
| Cc1cc2cn3c4ccc(O)cc4[nH]c(=O)c3c2cc1C | 0.0723 µM | 1.95 µM |  |  | 0.0346 µM | 1.74 µM | 0.0272 µM | 0.231 µM | 0.0323 µM | 1.5 µM | 0.032 µM | 1.18 µM |  |  | 0.0359 µM | 1.31 µM |  |  | 0.0675 | 1.81 µM |
| COc1ccc(Cc2cc3c(cc2OCC(=O)O)OCO3)cc1 |  | > 100 µM |  | > 100 µM |  | > 100 µM |  | > 100 µM |  | > 100 µM |  |  |  | > 100 µM |  | > 100 µM |  |  |  | > 100 µM |
| O=C(c1ccccc1)c1oc2ccc(Br)cc2c1-c1cnn(-c2ccccc2)c1 |  | > 100 µM |  | > 100 µM |  | > 100 µM |  |  |  | > 100 µM |  | > 100 µM |  | > 100 µM |  |  |  | > 100 µM |  | > 100 µM |
| O=C(/C=C/C=C/c1c(C2CC2)nc2ccccc2c1-c1ccc(F)cc1)c1cccs1 | 1.83 µM | 8.6 µM | 1.59 µM | > 100 µM | 3.57 µM | > 100 µM | 1.34 µM | 2.74 µM |  |  | 1.06 µM | 3.92 µM | 1.49 µM | 5.47 µM | 3.58 µM | > 100 µM | > 100 µM | > 100 µM | 1.64 | 14.7 µM |
| CN(/N=C/c1cccc2cccnc12)c1ccc([N+](=O)[O-])cc1 |  | > 100 µM |  | > 100 µM |  | > 100 µM |  | > 100 µM |  | > 100 µM |  | > 100 µM |  | > 100 µM |  | > 100 µM |  | > 100 µM |  |  |
| CN(C)CCSc1cccc(-c2cc(-c3cccc(SCCN(C)C)c3)nc(SCCN(C)C)n2)c1 |  | 6.87 µM |  | 13.8 µM |  | 3.4 µM |  | 2.96 µM |  |  |  | 4.67 µM |  | 3.4 µM |  | 2.78 µM |  | 12.1 µM |  | 3.04 µM |
| O=c1c(O)cccc2cc(O)c(O)c(O)c12 | 19.8 µM | > 100 µM | 5.06 µM | 27 µM | 32.3 µM | > 100 µM | > 100 µM | > 100 µM | 14.3 µM | > 100 µM | 39.1 µM | > 100 µM | 33.2 µM | > 100 µM | 27.3 µM | > 100 µM |  |  |  |  |
| CCN(CC)c1ccc2c(c1)Oc1nc(N)c(C#N)c(N)c1C2Sc1ccc(OC)cc1 (stereo unspecified) | 1.86 µM | 3.37 µM | 1.9 µM | 3.9 µM | 1.85 µM | 3.37 µM | 1.54 µM | 2.9 µM |  |  | 1.53 µM | 3.11 µM | 2.1 µM | 4.27 µM | 1.87 µM | 3.76 µM | 1.51 µM | 2.89 µM | 1.57 | 3.02 µM |
